From the supplement of paper PMC10627819

Assays:
Experiment in all cases: fitness (endpoint OD595 vs no drug) (fraction); higher = more growth
[1] = tested on: S. pneumoniae D39V
Outline: (§1)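 Each well of a 384-well plate received 30 µl of culture at OD595 0.01, or 55 µl for S. pneumoniae. TSB, LB Lennox or CY served as media at 37 °C. OD595 was taken every 30 min for 14 h and corrected by subtracting the first reading. Fitness is the optical density at stationary-phase entry divided by the robust mean of no-drug controls, capped at 1.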

[2] = tested on: S. aureus Newman
Outline: as §1

[3] = tested on: S. aureus DSM 20231
Outline: as §1

[4] = first compound 0.0156 µg/mL, partner 0.0625 µg/mL, one replicate
[5] = first compound 0.0156 µg/mL, partner 0.125 µg/mL, one replicate
[6] = first compound 0.0312 µg/mL, partner 0.0625 µg/mL, one replicate
[7] = first compound 0.0312 µg/mL, partner 0.125 µg/mL, one replicate
[8] = first compound 0.0625 µg/mL, partner 0.0625 µg/mL, one replicate
[9] = first compound 0.0625 µg/mL, partner 0.125 µg/mL, one replicate
[10] = first compound 0.0156 µg/mL, partner 0.5 µg/mL, one replicate
[11] = first compound 0.0156 µg/mL, partner 1 µg/mL, one replicate
[12] = first compound 0.0312 µg/mL, partner 0.5 µg/mL, one replicate
[13] = first compound 0.0312 µg/mL, partner 1 µg/mL, one replicate
[14] = first compound 0.0625 µg/mL, partner 0.5 µg/mL, one replicate
[15] = first compound 0.0625 µg/mL, partner 1 µg/mL, one replicate

CO[C@@]12[C@H](COC(N)=O)C3=C(C(=O)C(C)=C(N)C3=O)N1C[C@@H]1N[C@@H]12 [Mitomycin C] + C/C(=C\C(=O)OCCCCCCCCC(=O)O)C[C@@H]1OC[C@H](C[C@@H]2O[C@H]2[C@@H](C)[C@H](C)O)[C@@H](O)[C@H]1O [Pseudomonic acid]
fitness ([1]; first compound 0.001075 µg/mL, partner 0.03 µg/mL): 0.914 | fitness ([1]; first compound 0.001075 µg/mL, partner 0.06 µg/mL): 0.806 | fitness ([1]; first compound 0.001075 µg/mL, partner 0.12 µg/mL): 0.587 | fitness ([1]; first compound 0.002 µg/mL, partner 0.03 µg/mL): 0.855 | fitness ([1]; first compound 0.002 µg/mL, partner 0.06 µg/mL): 0.725 | fitness ([1]; first compound 0.002 µg/mL, partner 0.12 µg/mL): 0.549 | fitness ([1]; first compound 0.00215 µg/mL, partner 0.03 µg/mL): 0.919 | fitness ([1]; first compound 0.00215 µg/mL, partner 0.06 µg/mL): 0.795 | fitness ([1]; first compound 0.00215 µg/mL, partner 0.12 µg/mL): 0.584 | fitness ([1]; first compound 0.004 µg/mL, partner 0.03 µg/mL): 0.741 | fitness ([1]; first compound 0.004 µg/mL, partner 0.06 µg/mL): 0.64 | fitness ([1]; first compound 0.004 µg/mL, partner 0.12 µg/mL): 0.498 | fitness ([1]; first compound 0.0043 µg/mL, partner 0.03 µg/mL): 0.818 | fitness ([1]; first compound 0.0043 µg/mL, partner 0.06 µg/mL): 0.731 | fitness ([1]; first compound 0.0043 µg/mL, partner 0.12 µg/mL): 0.51 | fitness ([1]; first compound 0.008 µg/mL, partner 0.03 µg/mL): 0.612 | fitness ([1]; first compound 0.008 µg/mL, partner 0.06 µg/mL): 0.523 | fitness ([1]; first compound 0.008 µg/mL, partner 0.12 µg/mL): 0.322 | fitness ([2]; first compound 0.0156 µg/mL, partner 0.0313 µg/mL, one replicate): 0.0474 | fitness [2, 4]: 0.0185 | fitness [2, 5]: 0.0351 | fitness ([2]; first compound 0.0312 µg/mL, partner 0.0313 µg/mL, one replicate): 0.0196 | fitness [2, 6]: 0.0244 | fitness [2, 7]: 0.0217 | fitness ([2]; first compound 0.0625 µg/mL, partner 0.0313 µg/mL, one replicate): 0.0148 | fitness [2, 8]: 0.0093 | fitness [2, 9]: 0.029

CO[C@@]12[C@H](COC(N)=O)C3=C(C(=O)C(C)=C(N)C3=O)N1C[C@@H]1N[C@@H]12 [Mitomycin C] + CC1(C)S[C@@H]2[C@H](NC(=O)Cc3ccccc3)C(=O)N2[C@H]1C(=O)O [Penicillin G]
fitness ([2]; first compound 0.0156 µg/mL, partner 0.0195 µg/mL): 0.671 | fitness ([2]; first compound 0.0156 µg/mL, partner 0.039 µg/mL): 0.646 | fitness ([2]; first compound 0.0156 µg/mL, partner 0.078 µg/mL): 0.636 | fitness ([2]; first compound 0.0312 µg/mL, partner 0.0195 µg/mL): 0.562 | fitness ([2]; first compound 0.0312 µg/mL, partner 0.039 µg/mL): 0.556 | fitness ([2]; first compound 0.0312 µg/mL, partner 0.078 µg/mL): 0.564 | fitness ([2]; first compound 0.0625 µg/mL, partner 0.0195 µg/mL): 0.441 | fitness ([2]; first compound 0.0625 µg/mL, partner 0.039 µg/mL): 0.389 | fitness ([2]; first compound 0.0625 µg/mL, partner 0.078 µg/mL): 0.412

CO[C@@]12[C@H](COC(N)=O)C3=C(C(=O)C(C)=C(N)C3=O)N1C[C@@H]1N[C@@H]12 [Mitomycin C] + CC1=C\[C@@H](O)CC(=O)Cc2nc(co2)C(=O)N2CCC=C2C(=O)O[C@H](C(C)C)[C@H](C)/C=C/C(=O)NC\C=C\1 [Virginiamycin M1]
fitness ([3]; first compound 0.0156 µg/mL, partner 0.0625 µg/mL): 0.697 | fitness ([3]; first compound 0.0156 µg/mL, partner 0.125 µg/mL): 0.712 | fitness ([3]; first compound 0.0156 µg/mL, partner 0.25 µg/mL): 0.747 | fitness [3, 10]: 0.774 | fitness [3, 11]: 0.825 | fitness ([3]; first compound 0.0312 µg/mL, partner 0.0625 µg/mL): 0.676 | fitness ([3]; first compound 0.0312 µg/mL, partner 0.125 µg/mL): 0.719 | fitness ([3]; first compound 0.0312 µg/mL, partner 0.25 µg/mL): 0.714 | fitness [3, 12]: 0.681 | fitness [3, 13]: 0.701 | fitness ([3]; first compound 0.0625 µg/mL, partner 0.0625 µg/mL): 0.576 | fitness ([3]; first compound 0.0625 µg/mL, partner 0.125 µg/mL): 0.579 | fitness ([3]; first compound 0.0625 µg/mL, partner 0.25 µg/mL): 0.578 | fitness [3, 14]: 0.515 | fitness [3, 15]: 0.611 | fitness ([1]; first compound 0.001075 µg/mL, partner 0.5 µg/mL): 0.966 | fitness ([1]; first compound 0.001075 µg/mL, partner 1 µg/mL): 0.929 | fitness ([1]; first compound 0.001075 µg/mL, partner 2 µg/mL): 0.928 | fitness ([1]; first compound 0.002 µg/mL, partner 0.15 µg/mL, one replicate): 0.927 | fitness ([1]; first compound 0.002 µg/mL, partner 0.3 µg/mL, one replicate): 0.894 | fitness ([1]; first compound 0.002 µg/mL, partner 0.5 µg/mL, one replicate): 0.936 | fitness ([1]; first compound 0.002 µg/mL, partner 1 µg/mL, one replicate): 0.878 | fitness ([1]; first compound 0.002 µg/mL, partner 2 µg/mL): 0.808 | fitness ([1]; first compound 0.00215 µg/mL, partner 0.5 µg/mL): 0.945 | fitness ([1]; first compound 0.00215 µg/mL, partner 1 µg/mL): 0.947 | fitness ([1]; first compound 0.00215 µg/mL, partner 2 µg/mL): 0.905 | fitness ([1]; first compound 0.004 µg/mL, partner 0.15 µg/mL, one replicate): 0.849 | fitness ([1]; first compound 0.004 µg/mL, partner 0.3 µg/mL, one replicate): 0.823 | fitness ([1]; first compound 0.004 µg/mL, partner 0.5 µg/mL, one replicate): 0.887 | fitness ([1]; first compound 0.004 µg/mL, partner 1 µg/mL, one replicate): 0.854 | fitness ([1]; first compound 0.004 µg/mL, partner 2 µg/mL): 0.783 | fitness ([1]; first compound 0.0043 µg/mL, partner 0.5 µg/mL): 0.856 | fitness ([1]; first compound 0.0043 µg/mL, partner 1 µg/mL): 0.839 | fitness ([1]; first compound 0.0043 µg/mL, partner 2 µg/mL): 0.835 | fitness ([1]; first compound 0.008 µg/mL, partner 0.15 µg/mL, one replicate): 0.791 | fitness ([1]; first compound 0.008 µg/mL, partner 0.3 µg/mL, one replicate): 0.799 | fitness ([1]; first compound 0.008 µg/mL, partner 0.5 µg/mL, one replicate): 0.767 | fitness ([1]; first compound 0.008 µg/mL, partner 1 µg/mL, one replicate): 0.626 | fitness ([1]; first compound 0.008 µg/mL, partner 2 µg/mL): 0.682 | fitness [2, 4]: 0.71 | fitness [2, 5]: 0.702 | fitness ([2]; first compound 0.0156 µg/mL, partner 0.25 µg/mL, one replicate): 0.681 | fitness [2, 10]: 0.66 | fitness [2, 11]: 0.667 | fitness ([2]; first compound 0.0156 µg/mL, partner 2 µg/mL, one replicate): 0.593 | fitness [2, 6]: 0.683 | fitness [2, 7]: 0.662 | fitness ([2]; first compound 0.0312 µg/mL, partner 0.25 µg/mL, one replicate): 0.761 | fitness [2, 12]: 0.657 | fitness [2, 13]: 0.602 | fitness ([2]; first compound 0.0312 µg/mL, partner 2 µg/mL, one replicate): 0.544 | fitness [2, 8]: 0.564 | fitness [2, 9]: 0.597 | fitness ([2]; first compound 0.0625 µg/mL, partner 0.25 µg/mL, one replicate): 0.583 | fitness [2, 14]: 0.564 | fitness [2, 15]: 0.54 | fitness ([2]; first compound 0.0625 µg/mL, partner 2 µg/mL, one replicate): 0.433

CO[C@@]12[C@H](COC(N)=O)C3=C(C(=O)C(C)=C(N)C3=O)N1C[C@@H]1N[C@@H]12 [Mitomycin C] + CCC(C)C1C(=O)NC(=C)C(=O)NC(C(=O)NC(CSCC(C(=O)N1)NC(=O)/C(=C/C)/NC(=O)C(C(C)CC)N)C(=O)NC2C(SCC(NC(=O)CNC(=O)C3CCCN3C2=O)C(=O)NC(CCCCN)C(=O)NC4C(SCC(NC(=O)CNC(=O)C(NC(=O)C(NC(=O)C(NC(=O)CNC4=O)C)CC(C)C)CCSC)C(=O)NC(CC(=O)N)C(=O)NC(CCSC)C(=O)NC(CCCCN)C(=O)NC5C(SCC6C(=O)NC(C(=O)NC(CSC(C(C(=O)N6)NC(=O)C(NC5=O)C)C)C(=O)NC(CO)C(=O)NC(C(C)CC)C(=O)NC(CC7=CN=CN7)C(=O)NC(C(C)C)C(=O)NC(=C)C(=O)NC(CCCCN)C(=O)O)CC8=CN=CN8)C)C)C)CC(C)C [Nisin]
fitness ([1]; first compound 0.001075 µg/mL, partner 1.6 µg/mL, main component drawn): 0.0489 | fitness ([1]; first compound 0.001075 µg/mL, partner 3.2 µg/mL, main component drawn): 0.0397 | fitness ([1]; first compound 0.001075 µg/mL, partner 6.4 µg/mL, main component drawn): 0.0247 | fitness ([1]; first compound 0.002 µg/mL, partner 0.4275 µg/mL, main component drawn): 0.982 | fitness ([1]; first compound 0.002 µg/mL, partner 0.855 µg/mL, main component drawn): 0.943 | fitness ([1]; first compound 0.002 µg/mL, partner 1.71 µg/mL, main component drawn): 0.0782 | fitness ([1]; first compound 0.00215 µg/mL, partner 1.6 µg/mL, main component drawn): 0.0715 | fitness ([1]; first compound 0.00215 µg/mL, partner 3.2 µg/mL, main component drawn): 0.038 | fitness ([1]; first compound 0.00215 µg/mL, partner 6.4 µg/mL, main component drawn): 0.0066 | fitness ([1]; first compound 0.004 µg/mL, partner 0.4275 µg/mL, main component drawn): 0.838 | fitness ([1]; first compound 0.004 µg/mL, partner 0.855 µg/mL, main component drawn): 0.844 | fitness ([1]; first compound 0.004 µg/mL, partner 1.71 µg/mL, main component drawn): 0.0797 | fitness ([1]; first compound 0.0043 µg/mL, partner 1.6 µg/mL, main component drawn): 0.0313 | fitness ([1]; first compound 0.0043 µg/mL, partner 3.2 µg/mL, main component drawn): 0.0122 | fitness ([1]; first compound 0.0043 µg/mL, partner 6.4 µg/mL, main component drawn): 0.0194 | fitness ([1]; first compound 0.008 µg/mL, partner 0.4275 µg/mL, main component drawn): 0.636 | fitness ([1]; first compound 0.008 µg/mL, partner 0.855 µg/mL, main component drawn): 0.538 | fitness ([1]; first compound 0.008 µg/mL, partner 1.71 µg/mL, main component drawn): 0.0351
